Assay [1] has as its system Sprague-Dawley rats. As to the kind of experiment: Plasma total cholesterol, HDL-cholesterol and triglyceride levels in rats fed high-cholesterol diet. Format: in vivo, rat. From the text: (Step 1) Administration of NG5006 to rats
30 four-week-old white Sprague-Dawley rats (Korea Institute of Science and Technology, Korea), each weighing about 90 to 120 g, were evenly divided into three dietary groups by a randomized block design. The rats of the three groups were fed with three different high-cholesterol diets, i.e., AIN-76 laboratory animal diet(ICN Biochemicals, Cleveland, Ohio, U.S.A.) containing 1% cholesterol(Control group), 1% cholesterol plus 0.02% naringenin and 1% cholesterol plus 0.036% NG5006, respectively.
The rats were allowed to feed freely on the specified diet together with water for six weeks, the ingestion amount was recorded daily and the rats were weighed every 7 days, and then the record was analyzed. […] (Step 2) Determination of total cholesterol, HDL-cholesterol and triglyceride contents in blood
The effects of administering naringenin or NG5006 to rats on the plasma cholesterol and triglyceride contents were determined as follows.
Blood samples were taken from the rats of the three dietary groups and total cholesterol level was determined by using Sigma Diagnostic Kit Cat. No. C0534(Sigma Chemical Co., U.S.A.). HDL fractions were separated therefrom by using HDL-cholesterol reagent(Sigma Chemical Co., Cat. No. 352-1) and HDL-cholesterol level was determined by using Sigma Diagnostic Kit Cat. No. C9908(Sigma Chemical Co., U.S.A.). Triglyceride level was determined by using Sigma Diagnostic Kit Cat. No. 336-10(Sigma Chemical Co., U.S.A.).

For assay [2], the system named is ACAT. As to the kind of experiment: ACAT activity in liver microsomes of fed rats. It counts as in vivo, rat. The protocol:
To determine the effect of feeding NG5006 to rats on the activities of ACAT and HMG-CoA reductase, microsomes were separated from liver tissues to be used as an enzyme source.
1 g each of the livers taken from each group of rats of Example 12 was homogenized in 5 ml of homogenization medium(0. 1 M KH2PO4, pH 7.4, 0.1 mM EDTA and 10 mM β-mercaptoethanol). The homogenate was centrifuged at 3,000×g for 10 min. at 4° C. and the supernatant thus obtained was centrifuged at 15,000×g for 15 min. at 4° C. to obtain a supernatant. The supernatant was put into an ultracentrifuge tube(Beckman) and centrifuged at 100,000×g for 1 hour at 4° C. to obtain microsomal pellets, which were then suspended in 3 ml of the homogenization medium and centrifuged at 100,000×g for 1 hour at 4° C. The pellets thus obtained were suspended in 1 ml of the homogenization medium. The protein concentration of the resulting suspension was determined by Lowry's method and then adjusted to 4 to 8 mg/ml. The resulting suspension was stored in a deep freezer(Biofreezer, Forma Scientific Inc.).
6.67 μl of 1 mg/ml cholesterol solution in acetone was mixed with 6 μl of 10% Triton WR-1339(Sigma Co.) in acetone and then, acetone was removed from the mixture by evaporation under a nitrogen flow. Distilled water was added to the resulting mixture to adjust the concentration of cholesterol to […].
Added to 10 μl of the resulting aqueous cholesterol solution were 10 μl of 1 M KH2PO4(pH 7.4), 5 μl of 0.6 mM bovine serum albumin(BSA), 10 μl of microsome solution obtained in (Step 1) and 55 μl of distilled water(total 90 μl). The mixture was pre-incubated in a water bath at 37° C. for 30 min. […]
200 μl of the resulting supernatant was put in a scintillation bottle and 4 ml of scintillation fluid(Lumac Co.) was added thereto. The mixture was assayed for radioactivity with 1450 Microbeta liquid scintillation counter(Wallac Co., Finland). ACAT activity was calculated as picomoles of cholesteryl oleate synthesized per min. per mg protein(pmoles/min/mg protein).
In general terms: Liver microsomes are vesicles of endoplasmic reticulum, rich in cytochrome P450 enzymes.

Where [3] appears, read: plasma, rats on 1% cholesterol diet plus 0.02% naringenin or 0.036% NG5006, six weeks.
[4] abbreviates: rats, 1% cholesterol diet, six weeks.

For `CCCCCCCCCCCCCCCCOc1cc(O)c2c(c1)OC(c1ccc(O)cc1)CC2=O` (stereo not shown) [NG5006, Naringenin 7-O-cetyl Ether], in assay [1] (setting [3]), the “HDL-C (HDL-cholesterol)” value worked out at 36.7 ± 1.3 mg/dL, the HDL-C/Total-C is recorded as 20.4 ± 0.7%, the “TG (triglyceride)” value was determined as 118.4 ± 3.4 mg/dL and the “Total-C (total cholesterol)” value is 183.5 ± 6.4 mg/dL. The “AI: Atherosclerosis Index (AI = (Total-C − HDL-C)/HDL-C)” value in assay [1] (rats on 1% cholesterol diet plus 0.02% naringenin or 0.036% NG5006, six weeks) is reported as 4.0 ± 0.2. Further, in assay [1] (setting [4]), the “lowering blood lipid level, comparison in words” value is reported as “superior to naringenin in lowering blood lipid level”; the “total plasma cholesterol level lower than in the Control group” value was determined as 19%; the “triglyceride level lower than in the control group” value is on record as 33%. Further, the “ACAT activity lower than that of the control group” value in assay [2] (NG5006-fed rat group) is on record as 14%. In addition, the ACAT activity in assay [2] (liver microsomes of rats fed 1% cholesterol plus 0.02% naringenin or 0.036% NG5006, six weeks) is 149.7 ± 5.1 pmole/min/mg protein.

Values taken from patent publication US6455577B2, “Flavanone derivatives and composition for preventing or treating blood lipid level-related diseases comprising same” (Korea Research Institute of Bioscience and Biotechnology, priority 2000, dated 2002).
